Source: patent US9790233B2, “Compositions and methods of modulating 15-PGDH activity” (CASE WESTERN RESERVE UNIVERSITY, priority 2012, dated 2017)
Like-named read-outs stand apart in the source and are kept apart here.

Key:
Type in all cases: cell-based
[1] = test system: 15-PGDH luciferase fusion construct in LS174T reporter cell line; test: 15-PGDH-luciferase fusion gene reporter induction, LS174T cells; conditions: Homo sapiens
[2] = test system: 15-PGDH luciferase fusion construct in Vaco503 reporter cell line; test: 15-PGDH-luciferase fusion gene reporter induction, V503 cells
[3] = test system: 15-PGDH luciferase fusion construct in V9m reporter cell line; test: 15-PGDH-luciferase fusion gene reporter induction, V9m cells
[4] = read-out: LS174T reporter activity ([…]), […], % induction over basal level, Table 17, read-out: LS174T reporter activity (2.5 μM)
[5] = read-out: lS174T reporter activity ([…]), […], % induction over basal level, Table 17, read-out: lS174T reporter activity (7.5 μM)
[6] = read-out: V503 reporter activity ([…]), […], % induction over basal level, Table 17, read-out: V503 reporter activity (2.5 μM)
[7] = read-out: V503 reporter activity ([…]), […], % induction over basal level, Table 17, read-out: V503 reporter activity (7.5 μM)
[8] = read-out: V9M reporter activity ([…]), […], % induction of luciferase activity over basal level, Table 17, read-out: V9M reporter activity (2.5 μM)
[9] = read-out: V9M reporter activity ([…]), […], % induction over basal level, Table 17, read-out: V9M reporter activity (7.5 μM)
[10] = read-out: LS174T reporter activity ([…]), […], % increased luciferase activity over basal level, read-out: LS174T reporter activity (2.5 uM)
[11] = read-out: LS174T reporter activity ([…]), […], % increased luciferase activity over basal level, read-out: LS174T reporter activity (7.5 uM)
[12] = read-out: V503 reporter activity ([…]), […], % increased luciferase activity over basal level, read-out: V503 reporter activity (2.5 uM)
[13] = read-out: V503 reporter activity ([…]), […], % increased luciferase activity over basal level, read-out: V503 reporter activity (7.5 uM)
[14] = read-out: V9M reporter activity ([…]), […], % increased luciferase activity over basal level, 100 = doubling, read-out: V9M reporter activity (2.5 uM)
[15] = read-out: V9M reporter activity ([…]), […], % increased luciferase activity over basal level, 100 = doubling, read-out: V9M reporter activity (7.5 uM)
[16] = read-out: Ls174T-SC1 reporter activity, % ([…]), LS174T reporter cells, […] compound, % induction of luciferase activity over basal level, read-out: Ls174T-SC1 reporter activity, % (2.5 μM)
[17] = read-out: Ls174T-SC1 reporter activity, % ([…]), LS174T reporter cells, […] compound, % induction of luciferase activity over basal level, read-out: Ls174T-SC1 reporter activity, % (7.5 μM)
[18] = read-out: V503-3H9-7 reporter activity, % ([…]), V503 reporter cells, […] compound, % induction of luciferase activity over basal level, read-out: V503-3H9-7 reporter activity, % (2.5 μM)
[19] = read-out: V503-3H9-7 reporter activity, % ([…]), V503 reporter cells, […] compound, % induction of luciferase activity over basal level, read-out: V503-3H9-7 reporter activity, % (7.5 μM)
[20] = read-out: V9M-SC3 Reporter activity ([…]) (%), V9m reporter cells, […] compound, % induction of luciferase activity over basal level, read-out: V9M-SC3 Reporter activity (2.5 μM) (%)
[21] = read-out: V9M-SC3 Reporter activity ([…]), %, V9m reporter cells, […] compound, % induction of luciferase activity over basal level, read-out: V9M-SC3 Reporter activity (7.5 μM), %
[22] = V9m reporter cells, […] compound, % induction of luciferase activity over basal level

| Structure (SMILES) | activation at […] [1, 4] | activation at […] [1, 5] | activation at […] [2, 6] | activation at […] [2, 7] | activation at […] [3, 8] | activation at […] [3, 9] | activation at […] [1, 16] | activation at […] [1, 17] | activation at […] [2, 18] | activation at […] [2, 19] | activation at […] [3, 20] | activation at […] [3, 21] | also measured |
| --- | --- | --- | --- | --- | --- | --- | --- | --- | --- | --- | --- | --- | --- |
| COc1ccc(S(=O)(=O)N(CC(=O)Nc2ccccc2)c2ccccc2)cc1 [compound 474738] | -0.36% | 3.5% | 17% | 24.6% | -7.27% | 3.48% | – | – | – | – | – | – | – |
| NC(=O)c1sc2nc(-c3cccs3)cc(-c3ccc(F)cc3)c2c1N [compound 980653] | – | – | – | – | – | – | – | – | – | – | – | – | activation at […] [1, 10]: 5.76%; activation at […] [1, 11]: 11%; activation at […] [2, 12]: -10.5%; activation at […] [2, 13]: -15.2%; activation at […] [3, 14]: 8.83%; activation at […] [3, 15]: 12% |
| COc1ccc(N(CC(=O)Nc2ccc(C(C)=O)cc2)S(=O)(=O)c2ccccc2)cc1Cl [compound 539430] | 5.62% | 10.4% | 38.8% | 103% | 21.3% | 21.4% | – | – | – | – | – | – | – |
| O=C(CN(c1ccccc1)S(=O)(=O)c1ccccc1)Nc1cccnc1 [331727−07−2] | – | – | – | – | – | – | – | – | – | – | – | – | activation at […] ([1]; read-out: Ls174T-SC1 reporter activity, % ([…]), […], Table 18, read-out: Ls174T-SC1 reporter activity, % (2.5 μM)): -7.53%; activation at […] ([1]; read-out: Ls174T-SC1 reporter activity, % ([…]), […], Table 18, read-out: Ls174T-SC1 reporter activity, % (7.5 μM)): 9.47%; activation at […] ([2]; read-out: V503-3H9-7 reporter activity, % ([…]), […], Table 18, read-out: V503-3H9-7 reporter activity, % (2.5 μM)): 8.13%; activation at […] ([2]; read-out: V503-3H9-7 reporter activity, % ([…]), […], Table 18, read-out: V503-3H9-7 reporter activity, % (7.5 μM)): 1.14%; activation at […] ([3]; read-out: V9M-SC3 Reporter activity ([…]) (%), […], Table 18, read-out: V9M-SC3 Reporter activity (2.5 μM) (%)): 28.2% |
| COc1ccc(OC)c(N(CC(=O)Nc2ccccc2Br)S(=O)(=O)c2ccc(OC)c(OC)c2)c1 [compound 924740] | 7.69% | 16.7% | 20.2% | 52.2% | -0.54% | 6.33% | – | – | – | – | – | – | – |
| CCCCC[S+]([O-])c1sc2nc(-c3cccs3)cc(-c3ccccc3)c2c1N (centres unmarked) [SW208080, 2-(pentylsulfinyl)-4-phenyl-6-(thiophen-2-yl)thieno[2,3-b]pyridin-3-amine] | – | – | – | – | – | – | – | – | – | – | – | – | activation at […] [1, 10]: 118%; activation at […] [1, 11]: 117%; activation at […] [2, 12]: 104%; activation at […] [2, 13]: 127%; activation at […] [3, 14]: 102%; activation at […] [3, 15]: 98.7% |
| CNC(=O)CN(c1cc(OC)ccc1OC)S(=O)(=O)c1ccccc1 [SW203682] | – | – | – | – | – | – | 187% | 13.8% | -32.2% | 79.2% | 15.3% | 22.4% | – |
| COc1ccc(OC)c(N(CC(=O)O)S(=O)(=O)c2ccccc2)c1 [SW122063] | – | – | – | – | – | – | 22.6% | 19.9% | 42.5% | 44.1% | 1.67% | 4.8% | – |
| COc1ccc(OC)c(N(CC(=O)N2CCCC2=O)S(=O)(=O)c2ccccc2)c1 [SW208002] | – | – | – | – | – | – | -14.5% | -14.6% | -15.7% | -16.5% | -12.4% | -21.8% | – |
| COc1ccc(OC)c(N(CC(=O)Nc2cccnc2)S(=O)(=O)c2cccc(C)c2)c1 [SW203684] | – | – | – | – | – | – | 170% | 119% | 81.2% | 52.5% | 50.7% | 74.9% | – |
| COc1ccc(NC(=O)CN(c2ccccc2OC)S(C)(=O)=O)cc1 [compound 920847] | 6.18% | 2.97% | -4.47% | -10.6% | 9.26% | 17.7% | – | – | – | – | – | – | – |
| COc1ccc(OC)c(N(CC(=O)Nc2cncc(Cl)c2)S(=O)(=O)c2ccccc2)c1 [SW202990] | – | – | – | – | – | – | – | – | – | – | – | – | V9M-SC3 Reporter activity ([…]) (%) [3, 22]: 3.57%; V9M-SC3 Reporter activity ([…]), % [3, 22]: 23.49% |
| Nc1c(C(=O)Cc2ccccc2)sc2nc(-c3cccs3)cc(-c3ccccc3)c12 [SW033292] | – | – | – | – | – | – | – | – | – | – | – | – | activation at […] [3, 14]: 1.51% |
